Results from US11691969B2, “Pyridazinones as PARP7 inhibtors” (Ribon Therapeutics, Inc., priority 2019, dated 2023).

These compounds were tested against PARP7 (Homo sapiens (Human), UniProt Q7Z3E1) (assay: TR-FRET assay: displacement of biotinylated Probe A from the TIPARP active site (Enzymatic Assay for Inhibition of PARP7)). Conditions: TIPARP 6 nM, Probe A 2 nM, 25° C.
Chain of PARP7 (Q7Z3E1 whole entry): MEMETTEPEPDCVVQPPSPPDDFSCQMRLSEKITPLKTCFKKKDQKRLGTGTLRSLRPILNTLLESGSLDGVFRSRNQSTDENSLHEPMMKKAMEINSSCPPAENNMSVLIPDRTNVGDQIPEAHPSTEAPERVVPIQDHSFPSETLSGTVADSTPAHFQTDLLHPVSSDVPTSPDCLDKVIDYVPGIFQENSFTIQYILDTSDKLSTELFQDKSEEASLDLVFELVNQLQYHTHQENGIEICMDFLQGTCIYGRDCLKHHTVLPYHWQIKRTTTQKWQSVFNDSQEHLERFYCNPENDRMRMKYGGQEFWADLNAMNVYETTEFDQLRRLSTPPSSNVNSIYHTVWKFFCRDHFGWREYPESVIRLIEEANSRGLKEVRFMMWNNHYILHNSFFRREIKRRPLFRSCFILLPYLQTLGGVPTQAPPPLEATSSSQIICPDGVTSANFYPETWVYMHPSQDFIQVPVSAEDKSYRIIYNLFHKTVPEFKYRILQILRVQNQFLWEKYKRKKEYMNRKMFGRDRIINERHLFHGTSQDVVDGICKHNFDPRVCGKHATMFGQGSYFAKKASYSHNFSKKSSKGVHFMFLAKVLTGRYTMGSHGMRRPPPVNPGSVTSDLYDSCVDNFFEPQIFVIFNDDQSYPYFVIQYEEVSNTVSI
Assay type: binding
Procedure: Example A. Enzymatic Assay for Inhibition of PARP7
Displacement of Probe A, a biotinylated probe binding to the TIPARP active site, was measured using a time-resolved fluorescence energy transfer (TR-FRET) assay. 20 nL of a dose response curve of each test compound was spotted in black 384-well polystyrene proxiplates (Perkin Elmer) using a Mosquito (TTP Labtech). Reactions were performed in a 8 μl volume by adding 6 μL of TIPARP and Probe A in assay buffer (20 mM HEPES pH=8, 100 mM NaCl, 0.1% bovine serum albumin, 2 mM DTT and 0.002% Tween20), incubating with test compound at 25° C. for 30 min, then adding 2 μL of ULight-anti 6×His and LANCE Eu-W1024 labeled streptavidin (Perkin Elmer). The final concentrations of TIPARP and Probe A were 6 nM and 2 nM, respectively. The final concentration of ULight-anti 6×His and LANCE Eu-W1024 labeled streptavidin were 4 nM and 0.25 nM, respectively. Reactions were incubated at 25° C. for an additional 30 min, then read on an Envision platereader equipped with a LANCE/DELFIA top mirror (Perkin Elmer) using excitation of 320 nm and emission of 615 nm and […] with a […]. The ratio of the 665/615 nm emission were calculated for each well to determine the amount of complex of TIPARP and Probe Ain each well. Control wells containing a negative control of 0.25% DMSO vehicle or a positive control of 100 μM 5-(5-(piperidin-4-yloxy)isoindolin-2-yl)-4-(trifluoromethyl)pyridazin-3(2H)-one were used to calculate the % inhibition as described below:
[formula] where TRFcmpd is the TR-FRET ratio from the compound treated well, TRFmin is the TR-FRET ratio from the 5-(5-(piperidin-4-yloxy)isoindolin-2-yl)-4-(trifluoromethyl)pyridazin-3(2H)-one—treated positive control well and TRFmax is the TR-FRET ratio from the DMSO-treated negative control well. The % inhibition values were plotted as a function of compound concentration and the following 4-parameter fit was applied to derive the IC50 values:
[formula] where top and bottom are normally allowed to float, but may be fixed at 100 or 0 respectively in a 3-parameter fit. The Hill Coefficient is normally allowed to float but may also be fixed at 1 in a 3-parameter fit. Y is the % inhibition and X is the compound concentration. Synthesis of Probe A
`C[C@@H](CO[C@H]1CCN(C2CCN(c3cnc(C(F)F)cn3)CC2)C1=O)Nc1cn[nH]c(=O)c1C(F)(F)F` [Example 22A, 5-(((S)-1-(((S)-1-(1-(5-(difluoromethyl)pyrazin-2-yl)piperidin-4-yl)-2-oxopyrrolidin-3-yl)oxy)propan-2-yl)amino)-4-(trifluoromethyl)pyridazin-3(2H)-one] showed an IC50 of 100 to 1000 nM. `COC[C@@H](CO[C@H]1CCN(C2CCN(c3ccc(C#N)cn3)CC2)C1=O)Nc1cn[nH]c(=O)c1C(F)(F)F` [Example 17A, 6-(4-((S)-3-((S)-3-methoxy-2-((6-oxo-5-(trifluoromethyl)-1,6-dihydropyridazin-4-yl)amino)propoxy)-2-oxopyrrolidin-1-yl)piperidin-1-yl)nicotinonitrile] was tested, and the IC50 was 100 to 1000 nM. `C[C@@H](CO[C@@H]1CCN(C2CCN(c3cnc(C(F)(F)F)cn3)CC2)C1=O)Oc1cn[nH]c(=O)c1C(F)(F)F` [Example 31B, 5-(((S)-1-(((R)-2-oxo-1-(1-(5-(trifluoromethyl)pyrazin-2-yl)piperidin-4-yl)pyrrolidin-3-yl)oxy)propan-2-yl)oxy)-4-(trifluoromethyl)pyridazin-3(2H)-one] was tested, and the IC50 was 100 to 1000 nM. With `C[C@@H](CO[C@@H]1CCN(C2CCN(c3ncc(C(F)(F)F)cn3)CC2)C1=O)Nc1cn[nH]c(=O)c1C(F)(F)F` [Example 10B, 5-((S)-1-((R)-1-(1-(5-(trifluoromethyl)pyrimidin-2-yl)piperidin-4-yl)-2-oxopyrrolidin-3-yloxy)propan-2-ylamino)-4-(trifluoromethyl)pyridazin-3(2H)-one] the IC50 was < 100 nM. For `C[C@@H](CO[C@@H]1CCN(C2CCN(c3ncc(C(F)F)cn3)CC2)C1=O)Nc1cn[nH]c(=O)c1C(F)(F)F` [Example 15B, 5-(((S)-1-(((R)-1-(1-(5-(difluoromethyl)pyrimidin-2-yl)piperidin-4-yl)-2-oxopyrrolidin-3-yl)oxy)propan-2-yl)amino)-4-(trifluoromethyl)pyridazin-3(2H)-one], the IC50 was < 100 nM. With `C[C@@H](COCC(=O)N(C)C1CCN(c2cnc(C(F)(F)F)cn2)CC1)Nc1cn[nH]c(=O)c1C(F)(F)F` [Example 4, (S)—N-methyl-2-(2-(6-oxo-5-(trifluoromethyl)-1,6-dihydropyridazin-4-ylamino)propoxy)-N-(1-(5-(trifluoromethyl)pyrazin-2-yl)piperidin-4-yl)acetamide] the IC50 was < 100 nM. `C[C@@H](CO[C@@H]1CCN(C2CCN(c3ncc(C(F)(F)F)cn3)CC2C#N)C1=O)Nc1cn[nH]c(=O)c1C(F)(F)F` (stereo partly drawn) [Example 69, 4-((R)-2-oxo-3-((S)-2-((6-oxo-5-(trifluoromethyl)-1,6-dihydropyridazin-4-yl)amino)propoxy)pyrrolidin-1-yl)-1-(5-(trifluoromethyl)pyrimidin-2-yl)piperidine-3-carbonitrile] was tested, and the IC50 was < 100 nM. `C[C@@H](CO[C@@H]1CCN([C@H]2CCN(c3ncc(C(F)(F)F)cn3)C[C@@H]2F)C1=O)Nc1cn[nH]c(=O)c1C(F)(F)F` (single isomer, unassigned) [Example 38B] was tested, and the IC50 was < 100 nM. With `C[C@@H](CO[C@H]1CCN(C2CCN(c3ccc(C#N)cn3)CC2)C1=O)Oc1cn[nH]c(=O)c1Br` [Example 48B] the IC50 was < 100 nM. `CN(C(=O)COC[C@@H]1CCN1c1cn[nH]c(=O)c1C(F)(F)F)C1CCN(c2ncc(C(F)(F)F)cn2)CC1` [Example 8, (S)—N-methyl-2-((1-(6-oxo-5-(trifluoromethyl)-1,6-dihydropyridazin-4-yl)azetidin-2-yl)methoxy)-N-(1-(5-(trifluoromethyl)pyrimidin-2-yl)piperidin-4-yl)acetamide] was tested, and the IC50 was < 100 nM. With `COC[C@@H](CO[C@H]1CCN(C2CCN(c3cnc(C(F)(F)F)cn3)CC2)C1=O)Nc1cn[nH]c(=O)c1C(F)(F)F` [Example 18A, 5-(((S)-1-methoxy-3-(((S)-2-oxo-1-(1-(5-(trifluoromethyl)pyrazin-2-yl)piperidin-4-yl)pyrrolidin-3-yl)oxy)propan-2-yl)amino)-4-(trifluoromethyl)pyridazin-3(2H)-one] the IC50 was 100 to 1000 nM. In the case of `C[C@@H](COCC(=O)N(C)C1CN(c2ncc(C(F)(F)F)cn2)C1)Nc1cn[nH]c(=O)c1C(F)(F)F` [Example 5, (S)—N-methyl-2-(2-(6-oxo-5-(trifluoromethyl)-1,6-dihydropyridazin-4-ylamino)propoxy)-N-(1-(5-(trifluoromethyl)pyrimidin-2-yl)azetidin-3-yl)acetamide], the IC50 is reported as < 100 nM. In the case of `COC[C@@H](CO[C@@H]1CCN(C2CCN(c3ccc(C#N)cn3)CC2)C1=O)Nc1cn[nH]c(=O)c1C(F)(F)F` [Example 17B, 6-(4-((R)-3-((S)-3-methoxy-2-((6-oxo-5-(trifluoromethyl)-1,6-dihydropyridazin-4-yl)amino)propoxy)-2-oxopyrrolidin-1-yl)piperidin-1-yl)nicotinonitrile], the IC50 is reported as < 100 nM. With `C[C@@H](CO[C@H]1CCN(C2CCN(c3ncc(C(F)F)cn3)CC2)C1=O)Nc1cn[nH]c(=O)c1C(F)(F)F` [Example 15A, 5-(((S)-1-(((S)-1-(1-(5-(difluoromethyl)pyrimidin-2-yl)piperidin-4-yl)-2-oxopyrrolidin-3-yl)oxy)propan-2-yl)amino)-4-(trifluoromethyl)pyridazin-3(2H)-one] the IC50 was 100 to 1000 nM. In the case of `C[C@@H](CO[C@@H]1CCN([C@H]2[C@@H]3CN(c4ncc(C(F)(F)F)cn4)C[C@@H]32)C1=O)Nc1cn[nH]c(=O)c1C(F)(F)F` [Example 43, 5-(((S)-1-(((R)-2-oxo-1-((1R,5S,6s)-3-(5-(trifluoromethyl)pyrimidin-2-yl)-3-azabicyclo[3.1.0]hexan-6-yl)pyrrolidin-3-yl)oxy)propan-2-yl)amino)-4-(trifluoromethyl)pyridazin-3(2H)-one], the IC50 is reported as < 100 nM. In the case of `COC[C@@H](CO[C@@H]1CCN(C2CCN(c3ccc(C#N)cn3)CC2)C1=O)Oc1cn[nH]c(=O)c1Br` [Example 55B, 6-(4-((R)-3-((S)-2-((5-bromo-6-oxo-1,6-dihydropyridazin-4-yl)oxy)-3-methoxypropoxy)-2-oxopyrrolidin-1-yl)piperidin-1-yl)nicotinonitrile], the IC50 is reported as < 100 nM. In the case of `C[C@@H](CO[C@@H]1CCN(C2CCN(c3ccc(C#N)cn3)CC2)C1=O)Oc1cn[nH]c(=O)c1Br` [Example 48A], the IC50 is reported as < 100 nM. For `C[C@H](CN[C@@H]1CCN(C2CCN(c3ncc(C(F)(F)F)cn3)CC2)C1=O)Nc1cn[nH]c(=O)c1C(F)(F)F` (single isomer, unassigned) [Example 26D], the IC50 was 100 to 1000 nM. For `C[C@@H](CO[C@H]1C(=O)N(C2CCN(c3ncc(C(F)(F)F)cn3)CC2)CC1(C)C)Nc1cn[nH]c(=O)c1C(F)(F)F` [Example 35B, 5-(((S)-1-(((R)-4,4-dimethyl-2-oxo-1-(1-(5-(trifluoromethyl)pyrimidin-2-yl)piperidin-4-yl)pyrrolidin-3-yl)oxy)propan-2-yl)amino)-4-(trifluoromethyl)pyridazin-3(2H)-one], the IC50 was < 100 nM. With `C[C@@H](CO[C@@H]1CCN(C2CCN(c3ncc(C(F)(F)F)cn3)CC2O)C1=O)Oc1cn[nH]c(=O)c1C(F)(F)F` (stereo partly drawn) [Example 64B, Syn-5-(((2S)-1-(((3R)-1-(3-hydroxy-1-(5-(trifluoromethyl)pyrimidin-2-yl)piperidin-4-yl)-2-oxopyrrolidin-3-yl)oxy)propan-2-yl)oxy)-4-(trifluoromethyl)pyridazin-3(2H)-one] the IC50 was < 100 nM. With `COC[C@@H](COCC(=O)N(C)C1CCN(c2ncc(C(F)(F)F)cn2)CC1)Nc1cn[nH]c(=O)c1C(F)(F)F` [Example 9, (S)-2-(3-methoxy-2-((6-oxo-5-(trifluoromethyl)-1,6-dihydropyridazin-4-yl)amino)propoxy)-N-methyl-N-(1-(5-(trifluoromethyl)pyrimidin-2-yl)piperidin-4-yl)acetamide] the IC50 was < 100 nM. For `C[C@@H](CO[C@@H]1CCN([C@H]2CCN(c3ncc(C(F)(F)F)cn3)C[C@H]2O)C1=O)Nc1cn[nH]c(=O)c1C(F)(F)F` [Example 60, 5-(((S)-1-(((R)-1-((3R,4S)-3-hydroxy-1-(5-(trifluoromethyl)pyrimidin-2-yl)piperidin-4-yl)-2-oxopyrrolidin-3-yl)oxy)propan-2-yl)amino)-4-(trifluoromethyl)pyridazin-3(2H)-one], the IC50 was < 100 nM. `C[C@@H](COCC(=O)N(C)C1CCN(c2ncc(C(F)(F)F)cn2)CC1)Nc1cn[nH]c(=O)c1C(F)(F)F` [Example 2, (S)—N-methyl-2-(2-(6-oxo-5-(trifluoromethyl)-1,6-dihydropyridazin-4-ylamino)propoxy)-N-(1-(5-(trifluoromethyl)pyrimidin-2-yl)piperidin-4-yl)acetamide] was tested, and the IC50 was < 100 nM.
